Reference: PubChem BioAssay AID248 (DTP/NCI, 2004)
“And” between values parts separate entries of the source, which are not always exact repeats. Equal values may be shown once. Toxic doses and inconclusive results are not listed. Cut-off read from the data, not from the text of the source: active = T/C of 150% or more; inactive = T/C below 125%.

Test system: L1210 leukemia ip in BDF1 mice, survival T/C
Assay: NCI In Vivo Anticancer Drug Screen. Data for tumor model L1210 Leukemia (intraperitoneal) in B6D2F1 (BDF1) mice
Conditions: endpoint: mean survival time, higher = longer survival
How it was run: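 Antitumor effect is assessed in tumor-bearing animals. Survival in the compound arm is compared with a vehicle-dosed control arm and expressed as their quotient.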

[1] = dose: 100.0 mg/kg/injection, schedule: Q01DX009 (ip), vehicle: saline with Tween-80
[2] = dose: 100.0 mg/kg/injection, schedule: Q04DX003 (ip), vehicle: saline with Tween-80
[3] = dose: 200.0 mg/kg/injection, schedule: Q01DX009 (ip), vehicle: saline with Tween-80
[4] = dose: 200.0 mg/kg/injection, schedule: Q04DX003 (ip), vehicle: saline with Tween-80
[5] = dose: 400.0 mg/kg/injection, schedule: Q04DX003 (ip), vehicle: saline with Tween-80
[6] = dose: 25.0 mg/kg/injection, schedule: Q01DX009 (ip), vehicle: Klucel (hydroxypropylcellulose) (HPC)
[7] = dose: 50.0 mg/kg/injection, schedule: Q01DX009 (ip), vehicle: Klucel (hydroxypropylcellulose) (HPC)
[8] = dose: 100.0 mg/kg/injection, schedule: Q04DX003 (ip), vehicle: saline
[9] = dose: 100.0 mg/kg/injection, schedule: Q04DX003 (ip), vehicle: Klucel (hydroxypropylcellulose) (HPC)
[10] = dose: 200.0 mg/kg/injection, schedule: Q04DX003 (ip), vehicle: Klucel (hydroxypropylcellulose) (HPC)
[11] = dose: 400.0 mg/kg/injection, schedule: Q04DX003 (ip), vehicle: Klucel (hydroxypropylcellulose) (HPC)
[12] = dose: 100.0 mg/kg/injection, schedule: Q01DX001 (ip), vehicle: Klucel (hydroxypropylcellulose) (HPC)
[13] = dose: 100.0 mg/kg/injection, schedule: Q01DX009 (ip), vehicle: Klucel (hydroxypropylcellulose) (HPC)
[14] = dose: 200.0 mg/kg/injection, schedule: Q01DX009 (ip), vehicle: Klucel (hydroxypropylcellulose) (HPC)
[15] = dose: 200.0 mg/kg/injection, schedule: Q01DX001 (ip), vehicle: Klucel (hydroxypropylcellulose) (HPC)
[16] = dose: 400.0 mg/kg/injection, schedule: Q01DX001 (ip), vehicle: Klucel (hydroxypropylcellulose) (HPC)
[17] = dose: 400.0 mg/kg/injection, schedule: Q01DX009 (ip), vehicle: Klucel (hydroxypropylcellulose) (HPC)

Measured: T/C

COc1cc(/C=N/NC(=O)CCCCCCCCC(=O)N/N=C/c2ccc(O)c(OC)c2)ccc1O
inactive: dose: 50.0 mg/kg/injection, schedule: Q01DX009 (ip), vehicle: saline with Tween-80 95 % of control and 97 % of control | dose: 100.0 mg/kg/injection, schedule: Q01DX001 (ip), vehicle: saline with Tween-80 92 % of control | [1] 93 % of control and 91 % of control | dose: 100.0 mg/kg/injection, schedule: Q04DX002 (ip), vehicle: saline with Tween-80 101 % of control | [2] 87 % of control | dose: 200.0 mg/kg/injection, schedule: Q01DX001 (ip), vehicle: saline with Tween-80 95 % of control | [3] 94 % of control and 100 % of control | dose: 200.0 mg/kg/injection, schedule: Q04DX002 (ip), vehicle: saline with Tween-80 93 % of control and 103 % of control | [4] 97 % of control | dose: 400.0 mg/kg/injection, schedule: Q01DX001 (ip), vehicle: saline with Tween-80 92 % of control | dose: 400.0 mg/kg/injection, schedule: Q04DX002 (ip), vehicle: saline with Tween-80 90 % of control | [5] 101 % of control

O=[N+]([O-])c1ccc(NC2CCCCC2)c2c1no[n+]2[O-]
inactive: dose: 50.0 mg/kg/injection, schedule: Q04DX003 (ip), vehicle: saline with Tween-80 100 % of control | [2] 100 % of control | [4] 118 % of control

CC(O)C#CC(C)O (stereo not drawn)
inactive: dose: 12.5 mg/kg/injection, schedule: Q01DX009 (ip), vehicle: Klucel (hydroxypropylcellulose) (HPC) 89 % of control | dose: 12.5 mg/kg/injection, schedule: Q04DX003 (ip), vehicle: Klucel (hydroxypropylcellulose) (HPC) 92 % of control | [6] 102 % of control | dose: 25.0 mg/kg/injection, schedule: Q04DX003 (ip), vehicle: Klucel (hydroxypropylcellulose) (HPC) 96 % of control | [7] 103 % of control | dose: 50.0 mg/kg/injection, schedule: Q04DX003 (ip), vehicle: Klucel (hydroxypropylcellulose) (HPC) 103 % of control

CCC(C)[Se][Se]C(C)CC (stereo not drawn)
inactive: dose: 6.25 mg/kg/injection, schedule: Q01DX009 (ip), vehicle: saline 94 % of control | dose: 6.25 mg/kg/injection, schedule: Q04DX003 (ip), vehicle: saline 97 % of control | dose: 12.5 mg/kg/injection, schedule: Q01DX009 (ip), vehicle: saline 98 % of control | dose: 12.5 mg/kg/injection, schedule: Q04DX003 (ip), vehicle: saline 103 % of control | dose: 25.0 mg/kg/injection, schedule: Q01DX009 (ip), vehicle: saline 91 % of control | dose: 25.0 mg/kg/injection, schedule: Q04DX003 (ip), vehicle: saline 103 % of control | [8] 89 % of control

Cc1ccc([N+](=O)[O-])cc1NC(=O)SCc1ccccc1
inactive: [9] 93 % of control | [10] 102 % of control | [11] 105 % of control

Cc1nc(-c2ccc(N=Cc3ccc(N(CCCOS(C)(=O)=O)CCCOS(C)(=O)=O)cc3C)cc2)c(C)s1
inactive: [1] 100 % of control | [3] 93 % of control

CCN1CCC2CN(C(=O)Nc3ccccc3)CCN2C1=O (stereo not drawn)
inactive: [2] 98 % of control | [4] 90 % of control | [5] 87 % of control

CCCCCCCCCCCCCCC/C(CC)=N/Nc1ccc([N+](=O)[O-])cc1[N+](=O)[O-]
inactive: dose: 25.0 mg/kg/injection, schedule: Q01DX001 (ip), vehicle: Klucel (hydroxypropylcellulose) (HPC) 103 % of control | dose: 50.0 mg/kg/injection, schedule: Q01DX001 (ip), vehicle: Klucel (hydroxypropylcellulose) (HPC) 101 % of control | [12] 111 % of control

COc1ccc(NCc2ccccc2O)cc1
inactive: dose: 100.0 mg/kg/injection, schedule: Q01DX001 (ip), vehicle: other 95 % of control | dose: 200.0 mg/kg/injection, schedule: Q01DX001 (ip), vehicle: other 87 % of control | dose: 400.0 mg/kg/injection, schedule: Q01DX001 (ip), vehicle: other 93 % of control

S=c1c2ccccc2sn1-c1ccccc1
inactive: dose: 100.0 mg/kg/injection, schedule: Q01DX001 (ip), vehicle: carboxymethylcellulose (CMC) 92 % of control | dose: 200.0 mg/kg/injection, schedule: Q01DX001 (ip), vehicle: carboxymethylcellulose (CMC) 94 % of control | dose: 400.0 mg/kg/injection, schedule: Q01DX001 (ip), vehicle: carboxymethylcellulose (CMC) 87 % of control

CC(C)/C=C/C1(C(C)C)C(=O)NC(=O)NC1=O
inactive: dose: 75.0 mg/kg/injection, schedule: Q01DX001 (ip), vehicle: carboxymethylcellulose (CMC) 94 % of control | dose: 150.0 mg/kg/injection, schedule: Q01DX001 (ip), vehicle: carboxymethylcellulose (CMC) 94 % of control

O=C1c2cccc3cc([N+](=O)[O-])cc(c23)C(=O)N1CCc1ccccn1
inactive: dose: 100.0 mg/kg/injection, schedule: Q04DX002 (ip), vehicle: Klucel (hydroxypropylcellulose) (HPC) 94 % of control | dose: 200.0 mg/kg/injection, schedule: Q04DX002 (ip), vehicle: Klucel (hydroxypropylcellulose) (HPC) 102 % of control | dose: 400.0 mg/kg/injection, schedule: Q04DX002 (ip), vehicle: Klucel (hydroxypropylcellulose) (HPC) 108 % of control

CN(Cc1ccccc1)Cc1ccccc1
inactive: [7] 100 % of control | [13] 100 % of control | [9] 97 % of control | [14] 92 % of control | [10] 97 % of control

O=C(Nc1ccccc1)c1cc(N2CCOCC2)ccn1
inactive: dose: 100.0 mg/kg/injection, schedule: Q01DX001 (ip), vehicle: saline 97 % of control | dose: 200.0 mg/kg/injection, schedule: Q01DX001 (ip), vehicle: saline 95 % of control | dose: 400.0 mg/kg/injection, schedule: Q01DX001 (ip), vehicle: saline 91 % of control

Cc1ccc(S(=O)(=O)OCCOS(=O)(=O)c2ccc(C)cc2)cc1
inactive: [9] 90 % of control | [10] 87 % of control

CCCCC(CN)c1cccc2ccccc12 (stereo not drawn)
inactive: dose: 25.0 mg/kg/injection, schedule: Q04DX002 (ip), vehicle: saline with Tween-80 95 % of control | dose: 50.0 mg/kg/injection, schedule: Q04DX002 (ip), vehicle: saline with Tween-80 92 % of control

CCC(C)C(NCc1ccccc1)C(=O)O (stereo not drawn)
inactive: dose: 100.0 mg/kg/injection, schedule: Q01DX001 (ip), vehicle: acetone 108 % of control | [8] 102 % of control | dose: 200.0 mg/kg/injection, schedule: Q01DX001 (ip), vehicle: acetone 97 % of control | dose: 200.0 mg/kg/injection, schedule: Q04DX003 (ip), vehicle: saline 93 % of control | dose: 400.0 mg/kg/injection, schedule: Q01DX001 (ip), vehicle: acetone 90 % of control | dose: 400.0 mg/kg/injection, schedule: Q04DX003 (ip), vehicle: saline 96 % of control

Nc1ncc(C(=O)c2ccccc2)cc1Br
inactive: [9] 97 % of control | [10] 97 % of control | [11] 97 % of control

O=C(Nc1ccccc1[N+](=O)[O-])OCc1ccc([N+](=O)[O-])cc1
inactive: [2] 92 % of control | [4] 105 % of control | [5] 105 % of control

O=C(COc1ccc(Cl)c(Cl)c1)N(Cc1ccccc1)Cc1cccnc1
inactive: [12] 99 % of control | [13] 98 % of control | [9] 100 % of control | [15] 96 % of control | [14] 116 % of control | [10] 96 % of control | [16] 96 % of control | [17] 100 % of control | [11] 98 % of control

O=C(/C=C/c1ccccc1)Nc1ccc(Cl)cc1C(=O)c1ccccc1
inactive: [13] 102 % of control | [14] 97 % of control | [17] 94 % of control

C1CN(CC2CO2)CCO1 (stereo not drawn)
inactive: dose: 100.0 mg/kg/injection, schedule: Q01DX009 (ip), vehicle: saline 105 % of control | dose: 200.0 mg/kg/injection, schedule: Q01DX009 (ip), vehicle: saline 117 % of control | dose: 400.0 mg/kg/injection, schedule: Q01DX009 (ip), vehicle: saline 105 % of control

CC(C)N1C(=O)N(C(C)C)C2(CCN(CC3COc4ccccc4O3)CC2)C1=O (stereo not drawn)
inactive: [12] 100 % of control | [15] 88 % of control | [16] 94 % of control

O=C(O)C1CCC2CCCCC2[N-]1.O=C(O)C1CCC2CCCCC2[N-]1.[Zn+2] (stereo not drawn)
inactive: [6] 92 % of control | [7] 87 % of control | [13] 86 % of control | [9] 94 % of control | [10] 89 % of control | [11] 89 % of control
